Results taken from publication PMC7070443, “New Hybrid Pyrazole and Imidazopyrazole Antinflammatory Agents Able to Reduce ROS Production in Different Biological Targets” (Molecules, 2020).
“And” between values parts separate entries of the source, which are not always exact repeats. Identical values can stand only once.

Experiments:
[1] = tested on: human platelets; assay: Platelet aggregation inhibition (Born's method, thrombin-stimulated washed platelets); assay type: cell-based; conditions: 0.1 U/mL thrombin, mean +/- SD, at least six experiments in duplicate
Description: (§1) Freshly drawn venous blood from healthy volunteers of the “Centro Trasfusionale, Ospedale San Martino” in Genoa was collected into 130 mM aqueous trisodium citrate anticoagulant solution (9:1). The donors claimed to have not taken drugs known to interfere with platelet function during two weeks prior to blood collection and gave their informed consent. Washed platelets were prepared centrifuging whole blood at 100× g for 20 min. The obtained platelet-rich plasma was then centrifuged at 1100× g for 15 min. Pellet was washed once with pH 5.2 ACD solution (75 mM trisodium citrate, 42 mM citric acid and 136 mM glucose), centrifuged at 1100× g for 15 min and then re-suspended in pH 7.4 Hepes buffer (145 mM NaCl, 5 mM KCl, 1 mM MgSO4, 10 mM glucose, 10 mM HEPES).
Platelet aggregation was performed in a Bio-Data Aggregometer (Bio-Data Corporation, Horsham, PA, USA) according to Born’s method and quantified by the light transmission reached within 6 min at 37 °C. Briefly, washed platelets (3.0 × 10^8/mL) were pre-incubated for 3 min at 37 °C with saline, compound 4 or 5 before the addition of 0.1 U/mL thrombin. The IC50 values were calculated as above detailed.

[2] = tested on: human platelets; assay: ROS production inhibition in thrombin-stimulated washed platelets (DCFH-DA, flow cytometry); assay type: cell-based; conditions: for IC50: washed human platelets, 0.1 U/mL thrombin, DCFH-DA, mean +/- SD, at least six experiments in duplicate; for activity towards ROS production in platelets (in words): human platelets, thrombin stimulated
Description: as §1
ROS production was quantified as previously reported by DCFH-DA, a ROS-sensitive probe that yields upon oxidation the fluorescent adduct DCF that is trapped inside the cells. Briefly, washed platelets (1.0 × 10^8/mL), pre-incubated with saline, compounds 4 or 5, for 15 min at 37 °C, were stimulated by 0.1 U/mL thrombin. Incubation was stopped by cooling samples in ice bath and then samples were immediately analyzed in a Merck Millipore Bioscience Guava easyCyte flow cytometer (Merk Millipore, Burlington, MA, USA). The reported IC50 value is the molar concentration of the compound able to obtain 50% inhibition of the […] induced by the agonist and is calculated by the percentage of inhibition that is the inhibition of the […] measured in the presence of the agent compared with that measured in a control sample containing saline, carried out under the same conditions.

[3] = tested on: human neutrophils; assay: Flow cytometric evaluation of ROS production in fMLP-activated neutrophils (DCFH-DA); assay type: cell-based; conditions: data not shown
Text: Heparinized (heparin 10 U/mL Vister, PfizerItalia, Borgo San Michele, Latina, Italy) venous blood was obtained from healthy male volunteers after written informed consent. Neutrophils were isolated by dextran sedimentation (Dextran 70.000 Plander, Fresenius Kabi Italia, Verona, Italy), and subsequent centrifugation on a Ficoll-Hypaque density gradient (Lympholyte-I from Cedarlane Laboratories Ltd. Hornby, ON, Canada), as described. Contaminating erythrocytes were removed by hypotonic lysis. Neutrophils were washed and resuspended in Hanks’balanced salt solution (HBSS; EuroCLone, Wetherby West, Yorkshire, UK) mixed with Dulbecco’s PBS (EuroClone; HBBS:PBS. Final cell suspensions contained 97% or more neutrophils and more than 98% viable cells, as evaluated by a trypan blue test kit (Sigma Aldrich).
Flow cytometric analysis of neutrophil oxidative metabolism was carried out according to literature method. Briefly, neutrophils, were cultured for 1 h with or without 4d and 5d at different concentration. Thereafter, neutrophils were pre-treated with 2′-7′-dichlorofluorescein-diacetate (DCFH-DA; Sigma, Milan, Italy) ([…]), During the incubation time, DCFH-DA entered into the cells, and it was cleaved by intracellular esterases to give non-fluorescence DCFH trapped within the cells. After washing in PBS, the cells were incubated for 15 min at room temperature in the presence or absence of N-formyl-L-methionin-L-leucyl-L-phenylalanine (fMLP; Sigma, Milan, Italy) ([…]) for 30 min at 37 °C. During this period, intracellular ROS oxidized DCFH to give a green fluorescence […]. The reaction was stopped by keeping the samples on ice before being analyzed by flow cytometry (FC500, Beckman Coulter).

| Molecule | IC50 ([1]; Platelet) | IC50 ([2]; Homo sapiens, Platelet) | IC50 [2] | melting point | activity towards ROS production in platelets (in words) [2] | IC50 [1] | activity towards ROS production in neutrophils (in words) [3] |
| --- | --- | --- | --- | --- | --- | --- | --- |
| COc1cc(/C=N/NC(=O)c2cnn(CC(O)c3ccccc3)c2N)ccc1OC(F)F (centres unmarked) [4a, (E)-5-Amino-N′-(4-(difluoromethoxy)-3-methoxybenzylidene)-1-(2-hydroxy-2-phenylethyl)-1H-pyrazole-4-carbohydrazide] | 7.6 ± 0.5 µM | ~10 µM | 10.1 ± 2.1 µM | 119 to 121 °C |  |  |  |
| COc1cccc(/C=N/NC(=O)c2cnn(CC(O)c3ccccc3)c2N)c1OC1CCCC1 (centres unmarked) [4b, (E)-5-Amino-N′-(2-(cyclopentyloxy)-3-methoxybenzylidene)-1-(2-hydroxy-2-phenylethyl)-1H-pyrazole-4-carbohydrazide] | 64 ± 2.5 µM | 20.5 ± 2.5 µM |  | 180 to 181 °C |  |  |  |
| CCC(C)Oc1cc(/C=N/NC(=O)c2cnn(CC(O)c3ccccc3)c2N)ccc1OC (centres unmarked) [4c, (E)-5-Amino-N′-(3-(sec-butoxy)-4-methoxybenzylidene)-1-(2-hydroxy-2-phenylethyl)-1H-pyrazole-4-carbohydrazide] | 57.1 ± 1.6 µM | 16.7 ± 1.1 µM |  | 190 to 193 °C |  |  |  |
| Nc1c(C(=O)N/N=C/c2ccc(OC(F)F)c(OC3CCCC3)c2)cnn1CC(O)c1ccccc1 (centres unmarked) [4e, (E)-5-Amino-N′-(3-(cyclopentyloxy)-4-(difluoromethoxy)benzylidene)-1-(2-hydroxy-2-phenylethyl)-1H-pyrazole-4-carbohydrazide] | 29.4 ± 4.4 µM | 32.8 ± 2.8 µM |  | 178 to 180 °C |  |  |  |
| Nc1c(C(=O)N/N=C/c2ccc(OC(F)F)c(Oc3ccccc3)c2)cnn1CC(O)c1ccccc1 (centres unmarked) [4f, (E)-5-Amino-N′-(4-(difluoromethoxy)-3-phenoxybenzylidene)-1-(2-hydroxy-2-phenylethyl)-1H-pyrazole-4-carbohydrazide] | 9.8 ± 1.7 µM | ~10 µM | 8.6 ± 2.2 µM | 184 to 186 °C |  |  |  |
| Nc1c(C(=O)N/N=C/c2ccc(OC(F)F)c(OCc3ccccc3)c2)cnn1CC(O)c1ccccc1 (centres unmarked) [4g, (E)-5-Amino-N′-(3-(benzyloxy)-4-(difluoromethoxy)benzylidene)-1-(2-hydroxy-2-phenylethyl)-1H-pyrazole-4-carbohydrazide] | 11 ± 1.2 µM | ~10 µM | 9.5 ± 2.6 µM | 144 to 146 °C |  |  |  |
| COc1cc(/C=N/NC(=O)c2cnn(CC(O)c3ccccc3)c2N)cc(OC)c1OC (centres unmarked) [4h, (E)-5-Amino-1-(2-hydroxy-2-phenylethyl)-N′-(3,4,5-trimethoxybenzylidene)-1H-pyrazole-4-carbohydrazide] | > 200 µM | > 200 µM |  |  | inactive |  |  |
| COc1cccc(/C=N/NC(=O)c2cnn(CC(O)c3ccccc3)c2N)c1Oc1ccccc1 (centres unmarked) [4i, (E)-5-Amino-1-(2-hydroxy-2-phenylethyl)-N′-(3-methoxy-2-phenoxybenzylidene)-1H-pyrazole-4-carbohydrazide] | > 200 µM | > 200 µM |  | 207 to 209 °C | completely inactive |  |  |
| COc1cccc(/C=N/NC(=O)c2cnn(CC(O)c3ccccc3)c2N)c1OCc1ccccc1 (centres unmarked) [4j, (E)-5-Amino-N′-(2-(benzyloxy)-3-methoxybenzylidene)-1-(2-hydroxy-2-phenylethyl)-1H-pyrazole-4-carbohydrazide] | > 200 µM | > 200 µM |  | 198 to 200 °C | completely inactive |  |  |
| CCC(C)Oc1cc(/C=N/NC(=O)c2cnn3c2NC(c2ccccc2)C3)ccc1OC (centres unmarked) [5c, (E)-N′-(3-(sec-Butoxy)-4-methoxybenzylidene)-2-phenyl-2,3-dihydro-1H-imidazo[1,2-b]pyrazole-7-carbohydrazide] | 70.9 ± 4 µM | 71.4 ± 6 µM |  | 130 to 131 °C |  |  |  |
| NNC(=O)c1cnn2c1NC(c1ccccc1)C2 (centres unmarked) [compound 12, 2-Phenyl-2,3-dihydro-1H-imidazo[1,2-b]pyrazole-7-carbohydrazide] |  |  |  |  | completely inactive |  | completely inactive |
| (E)-5-Amino-N′-(3-(cyclopentyloxy)-4-methoxybenzylidene)-1-(2-hydroxy-2-phenylethyl)-1H-pyrazole-4-carbohydrazide [4k] |  |  | 90 µM and 92.7 µM |  |  | 86.1 ± 7.8 µM |  |

Continued, in another order:

| IC50 ([1]; Platelet) | IC50 ([2]; Homo sapiens, Platelet) | IC50 [2] | melting point | Molecule | activity towards ROS production in platelets (in words) [2] | IC50 [1] | activity towards ROS production in neutrophils (in words) [3] |
| --- | --- | --- | --- | --- | --- | --- | --- |
| 31.5 ± 5.2 µM | 37.2 ± 2.5 µM |  | 206 to 207 °C | COc1ccc(/C=N/NC(=O)c2cnn3c2NC(c2ccccc2)C3)cc1OC (centres unmarked) [5a, (E)-N′-(3,4-Dimethoxybenzylidene)-2-phenyl-2,3-dihydro-1H-imidazo[1,2-b]pyrazole-7-carbohydrazide] |  |  |  |
| 59.1 ± 5.5 µM | 66.7 ± 5.7 µM |  |  | COc1cccc(/C=N/NC(=O)c2cnn3c2NC(c2ccccc2)C3)c1OC1CCCC1 (centres unmarked) [5b, (E)-N′-(2-(Cyclopentyloxy)-3-methoxybenzylidene)-2-phenyl-2,3-dihydro-1H-imidazo[1,2-b]pyrazole-7-carbohydrazide] |  |  |  |
| 70.5 ± 8 µM | 78.8 ± 5.6 µM |  |  | O=C(N/N=C/c1ccc(OC(F)F)c(OC2CCCC2)c1)c1cnn2c1NC(c1ccccc1)C2 (centres unmarked) [5e, (E)-N′-(3-(cyclopentyloxy)-4-(difluoromethoxy)benzylidene)-2-phenyl-2,3-dihydro-1H-imidazo[1,2-b]-pyrazole-7-carbohydrazide] |  |  |  |
| 61.6 ± 6.5 µM | 59.9 ± 5.7 µM |  | 119 to 120 °C | COc1ccc(/C=N/NC(=O)c2cnn3c2NC(c2ccccc2)C3)cc1OC1CCCCC1 (centres unmarked) [5f, (E)-N′-(3-(Cyclohexyloxy)-4-(methoxy)benzylidene)-2-phenyl-2,3-dihydro-1H-imidazo[1,2-b]pyrazole-7-carbohydrazide] |  |  |  |
| 67 ± 6.6 µM | 77.9 ± 7.1 µM |  |  | O=C(N/N=C/c1ccc2c(c1)OCO2)c1cnn2c1NC(c1ccccc1)C2 (centres unmarked) [5g, (E)-N′-(benzo[d][1,3]dioxol-5-ylmethylene)-2-phenyl-2,3-dihydro-1H-imidazo[1,2-b]pyrazole-7-carbohydrazide] |  |  |  |
| > 200 µM | > 200 µM |  |  | COc1cc(/C=N/NC(=O)c2cnn3c2NC(c2ccccc2)C3)cc(OC)c1OC (centres unmarked) [5h, (E)-2-Phenyl-N′-(3,4,5-trimethoxybenzylidene)-2,3-dihydro-1H-imidazo[1,2-b]pyrazole-7-carbohydrazide] | inactive |  |  |
|  |  | > 200 µM |  | COc1cccc(/C=N/NC(=O)c2cnn3c2NC(c2ccccc2)C3)c1Oc1ccccc1 (centres unmarked) [5i, (E)-N′-(2-(Phenoxy)-3-(methoxy)benzylidene)-2-phenyl-2,3-dihydro-1H-imidazo[1,2-b]pyrazole-7-carbo-hydrazide] | completely inactive | > 200 µM |  |
| > 200 µM | > 200 µM |  | 200 to 202 °C | COc1cccc(/C=N/NC(=O)c2cnn3c2NC(c2ccccc2)C3)c1OCc1ccccc1 (centres unmarked) [5j, (E)-N′-(2-(Benzyloxy)-3-(methoxy)benzylidene)-2-phenyl-2,3-dihydro-1H-imidazo[1,2-b]pyrazole-7-carbohydrazide] | completely inactive |  |  |
| > 200 µM | > 200 µM |  | 140 to 141 °C | COc1ccc(/C=N/NC(=O)c2cnn3c2N(C(C)=O)C(c2ccccc2)C3)cc1OC1CCCC1 (centres unmarked) [5k, (E)-1-acetyl-N′-(3-(cyclopentyloxy)-4-methoxybenzylidene)-2-phenyl-2,3-dihydro-1H-imidazo[1,2-b]pyrazole-7-carbohydrazide] | completely inactive |  |  |
